Test system: yeast genes (expressed mRNA)
Experiment: DNA chip measurement of expressed mRNA of yeast genes after culture with a toxic chemical substance
Format: cell-based, Saccharomyces cerevisiae S288C
Summary of the method: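 Yeast S288C, YPD 25° C; toxicant at log phase, 2 h, sublethal growth-inhibiting conc.; no-chemical control. Hot SDS/acetate RNA extraction, oligo-dT mRNA, Cy3/Cy5-dUTP RT. Whole-genome chip, 65° C >12 h. Readout: treated/control intensity ratio, ≥2 significant.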

C[S+](C)[O-] [(15), Dimethyl sulfoxide]
The level of expressed mRNA in the presence of chemical substance/The level of expressed mRNA in the absence of chemical substance (yeast gene YJL152W, cultured two hours with substance): 0.8
The level of expressed mRNA in the presence of chemical substance/The level of expressed mRNA in the absence of chemical substance (yeast gene YJL186W, cultured two hours with substance): 2.5
level of expressed mRNA in the presence of chemical substance / level in the absence of chemical substance (yeast gene YJR030C, cultured two hours with the chemical substance): 0.8
The level of expressed mRNA in the presence of chemical substance/The level of expressed mRNA in the absence of chemical substance (yeast gene YJR074W, cultured two hours with substance): 3.4
level of expressed mRNA in the presence of chemical substance / level in the absence of chemical substance (yeast gene YKL051W, cultured two hours with the chemical substance): 1.5
level of expressed mRNA in the presence of chemical substance / level in the absence of chemical substance (yeast gene YKL097C, cultured two hours with the chemical substance): 0.8
level of expressed mRNA in the presence of chemical substance / level in the absence of chemical substance (yeast gene YKL100C, cultured two hours with the chemical substance): 1.7
level of expressed mRNA in the presence of chemical substance / level in the absence of chemical substance (yeast gene YKR040C, cultured two hours with the chemical substance): 1.1
The level of expressed mRNA in the presence of chemical substance/The level of expressed mRNA in the absence of chemical substance (yeast gene YKR046C, cultured two hours with substance): 2.9
The level of expressed mRNA in the presence of chemical substance/The level of expressed mRNA in the absence of chemical substance (yeast gene YLR041W, cultured two hours with the chemical substance): 1.3
The level of expressed mRNA in the presence of chemical substance/The level of expressed mRNA in the absence of chemical substance (yeast gene YLR132C, cultured two hours with substance): 2.3
The level of expressed mRNA in the presence of chemical substance/The level of expressed mRNA in the absence of chemical substance (yeast gene YLR149C, cultured two hours with substance): 1.3
The level of expressed mRNA in the presence of chemical substance/The level of expressed mRNA in the absence of chemical substance (yeast gene YLR151C, cultured two hours with the substance): 0.7
The level of expressed mRNA in the presence of chemical substance/The level of expressed mRNA in the absence of chemical substance (yeast gene YLR152C, cultured two hours with substance): 0.8
The level of expressed mRNA in the presence of chemical substance/The level of expressed mRNA in the absence of chemical substance (yeast gene YLR205C, cultured two hours with substance): 2.5
level of expressed mRNA in the presence of chemical substance / level in the absence of chemical substance (yeast gene YLR226W, cultured two hours with the chemical substance): 1.3
The level of expressed mRNA in the presence of chemical substance/The level of expressed mRNA in the absence of chemical substance (yeast gene YLR304C, mitochondria-located protein gene, cultured two hours with substance): 1.6
The level of expressed mRNA in the presence of chemical substance/The level of expressed mRNA in the absence of chemical substance (yeast gene YLR307W): 3.9
level of expressed mRNA in the presence of chemical substance / level in the absence of chemical substance (yeast gene YLR338W, cultured two hours with the chemical substance): 1.5
The level of expressed mRNA in the presence of chemical substance/The level of expressed mRNA in the absence of chemical substance (yeast gene YLR391W): 3.9
level of expressed mRNA in the presence of chemical substance / level in the absence of chemical substance (yeast gene YLR392C, cultured two hours with the chemical substance): 0.5
The level of expressed mRNA in the presence of chemical substance/The level of expressed mRNA in the absence of chemical substance (yeast gene YLR395C, mitochondria-located protein gene, cultured two hours with substance): 0.4
level of expressed mRNA in the presence of chemical substance / level in the absence of chemical substance (yeast gene YLR415C, cultured two hours with the chemical substance): 1.0
level of expressed mRNA in the presence of chemical substance / level in the absence of chemical substance (yeast gene YLR427W, cultured two hours with the chemical substance): 0.8
The level of expressed mRNA in the presence of chemical substance/The level of expressed mRNA in the absence of chemical substance (yeast gene YLR444C, cultured two hours with the substance): 1.3
level of expressed mRNA in the presence of chemical substance / level in the absence of chemical substance (yeast gene YML013W, cultured two hours with the chemical substance): 2.2
level of expressed mRNA in the presence of chemical substance / level in the absence of chemical substance (yeast gene YML029W, cultured two hours with the chemical substance): 0.8
level of expressed mRNA in the presence of chemical substance / level in the absence of chemical substance (yeast gene YML041C, cultured two hours with the chemical substance): 1.0
level of expressed mRNA in the presence of chemical substance / level in the absence of chemical substance (yeast gene YML079W, cultured two hours with the chemical substance): 0.3
The level of expressed mRNA in the presence of chemical substance/The level of expressed mRNA in the absence of chemical substance (yeast gene YML128C, cultured two hours with substance): 2.6
The level of expressed mRNA in the presence of chemical substance/The level of expressed mRNA in the absence of chemical substance (yeast gene YMR031C, cultured two hours with the substance): 0.7
level of expressed mRNA in the presence of chemical substance / level in the absence of chemical substance (yeast gene YMR068W, cultured two hours with the chemical substance): 2.2
level of expressed mRNA in the presence of chemical substance / level in the absence of chemical substance (yeast gene YMR071C, cultured two hours with the chemical substance): 0.8
The level of expressed mRNA in the presence of chemical substance/The level of expressed mRNA in the absence of chemical substance (yeast gene YMR083W, mitochondria-located protein gene, cultured two hours with substance): 1.3
The level of expressed mRNA in the presence of chemical substance/The level of expressed mRNA in the absence of chemical substance (yeast gene YMR090W, cultured two hours with substance): 1.9
level of expressed mRNA in the presence of chemical substance / level in the absence of chemical substance (yeast gene YMR160W, cultured two hours with the chemical substance): 1.5
level of expressed mRNA in the presence of chemical substance / level in the absence of chemical substance (yeast gene YNL026W, cultured two hours with the chemical substance): 0.8
level of expressed mRNA in the presence of chemical substance / level in the absence of chemical substance (yeast gene YNL058C, cultured two hours with the chemical substance): 2.2
level of expressed mRNA in the presence of chemical substance / level in the absence of chemical substance (yeast gene YNL063W, cultured two hours with the chemical substance): 0.7
level of expressed mRNA in the presence of chemical substance / level in the absence of chemical substance (yeast gene YNL176C, cultured two hours with the chemical substance): 0.8
level of expressed mRNA in the presence of chemical substance / level in the absence of chemical substance (yeast gene YNL194C, cultured two hours with the chemical substance): 0.5
level of expressed mRNA in the presence of chemical substance / level in the absence of chemical substance (yeast gene YNL200C, cultured two hours with the chemical substance): 0.8
The level of expressed mRNA in the presence of chemical substance/The level of expressed mRNA in the absence of chemical substance (yeast gene YNL241C, cultured for two hours with substance): 7.0
level of expressed mRNA in the presence of chemical substance / level in the absence of chemical substance (yeast gene YNL253W, cultured two hours with the chemical substance): 0.5
level of expressed mRNA in the presence of chemical substance / level in the absence of chemical substance (yeast gene YNL276C, cultured two hours with the chemical substance): 0.5
level of expressed mRNA in the presence of chemical substance / level in the absence of chemical substance (yeast gene YNR051C, cultured two hours with the chemical substance): 1.2
The level of expressed mRNA in the presence of chemical substance/The level of expressed mRNA in the absence of chemical substance (yeast gene YNR074C, cultured two hours with substance): 0.8
level of expressed mRNA in the presence of chemical substance / level in the absence of chemical substance (yeast gene YOL026C, cultured two hours with the chemical substance): 0.9
The level of expressed mRNA in the presence of chemical substance/The level of expressed mRNA in the absence of chemical substance (yeast gene YOR007C, cultured two hours with substance): 1.3
level of expressed mRNA in the presence of chemical substance / level in the absence of chemical substance (yeast gene YOR022C, cultured two hours with the chemical substance): 0.8
The level of expressed mRNA in the presence of chemical substance/The level of expressed mRNA in the absence of chemical substance (yeast gene YOR049C, cultured two hours with substance): 1.3
level of expressed mRNA in the presence of chemical substance / level in the absence of chemical substance (yeast gene YOR087W, cultured two hours with the chemical substance): 0.8
level of expressed mRNA in the presence of chemical substance / level in the absence of chemical substance (yeast gene YOR138C, cultured two hours with the chemical substance): 1.0
The level of expressed mRNA in the presence of chemical substance/The level of expressed mRNA in the absence of chemical substance (yeast gene YOR152C, cultured two hours with substance): 3.6
The level of expressed mRNA in the presence of chemical substance/The level of expressed mRNA in the absence of chemical substance (yeast gene YOR187W, mitochondria-located protein gene, cultured two hours with substance): 1.3
The level of expressed mRNA in the presence of chemical substance/The level of expressed mRNA in the absence of chemical substance (yeast gene YOR215C, cultured two hours with substance): 0.8
The level of expressed mRNA in the presence of chemical substance/The level of expressed mRNA in the absence of chemical substance (yeast gene YOR248W, cultured two hours with substance): 8.8
level of expressed mRNA in the presence of chemical substance / level in the absence of chemical substance (yeast gene YOR253W, cultured two hours with the chemical substance): 1.1
level of expressed mRNA in the presence of chemical substance / level in the absence of chemical substance (yeast gene YOR267C, cultured two hours with the chemical substance): 1.3
level of expressed mRNA in the presence of chemical substance / level in the absence of chemical substance (yeast gene YOR325W, cultured two hours with the chemical substance): 0.7
The level of expressed mRNA in the presence of chemical substance/The level of expressed mRNA in the absence of chemical substance (yeast gene YOR382W, cultured two hours with substance): 2.1
The level of expressed mRNA in the presence of chemical substance/The level of expressed mRNA in the absence of chemical substance (yeast gene YOR386W, mitochondria-located protein gene, cultured two hours with substance): 1.3
level of expressed mRNA in the presence of chemical substance / level in the absence of chemical substance (yeast gene YPL005W, cultured two hours with the chemical substance): 1.2
The level of expressed mRNA in the presence of chemical substance/The level of expressed mRNA in the absence of chemical substance (yeast gene YPL087W, cultured two hours with substance): 1.3
level of expressed mRNA in the presence of chemical substance / level in the absence of chemical substance (yeast gene YPL150W, cultured two hours with the chemical substance): 1.1
level of expressed mRNA in the presence of chemical substance / level in the absence of chemical substance (yeast gene YPL152W, cultured two hours with the chemical substance): 2.3
level of expressed mRNA in the presence of chemical substance / level in the absence of chemical substance (yeast gene YPL168W, cultured two hours with the chemical substance): 0.8
level of expressed mRNA in the presence of chemical substance / level in the absence of chemical substance (yeast gene YPL180W, cultured two hours with the chemical substance): 0.7
level of expressed mRNA in the presence of chemical substance / level in the absence of chemical substance (yeast gene YPL188W, cultured two hours with the chemical substance): 0.8
The level of expressed mRNA in the presence of chemical substance/The level of expressed mRNA in the absence of chemical substance (yeast gene YPL206C, cultured two hours with substance): 0.8
level of expressed mRNA in the presence of chemical substance / level in the absence of chemical substance (yeast gene YPL221W, cultured two hours with the chemical substance): 1.0
level of expressed mRNA in the presence of chemical substance / level in the absence of chemical substance (yeast gene YPL225W, cultured two hours with the chemical substance): 0.9
The level of expressed mRNA in the presence of chemical substance/The level of expressed mRNA in the absence of chemical substance (yeast gene YPR014C, cultured two hours with the substance): 0.9
The level of expressed mRNA in the presence of chemical substance/The level of expressed mRNA in the absence of chemical substance (yeast gene YPR023C, cultured two hours with substance): 0.8
The level of expressed mRNA in the presence of chemical substance/The level of expressed mRNA in the absence of chemical substance (yeast gene YPR037C, mitochondria-located protein gene, cultured two hours with substance): 4.1
level of expressed mRNA in the presence of chemical substance / level in the absence of chemical substance (yeast gene YPR049C, cultured two hours with the chemical substance): 1.5
level of expressed mRNA in the presence of chemical substance / level in the absence of chemical substance (yeast gene YPR146C, cultured two hours with the chemical substance): 0.9
level of expressed mRNA in the presence of chemical substance / level in the absence of chemical substance (yeast gene YPR148C, cultured two hours with the chemical substance): 1.7
level of expressed mRNA in the presence of chemical substance / level in the absence of chemical substance (yeast gene YPR172W, cultured two hours with the chemical substance): 1.5

Reference: patent US20100041089A1, “IMPROVED METHOD FOR DETECTING CHEMICAL […]” (priority 2006, published 2010)
